According to ChEMBL document CHEMBL1152560, “Substituted 2-arylbenzothiazoles as kinase inhibitors: hit-to-lead optimization” (Bioorg Med Chem, 2009):

Legend:
[1] = target: T1, Ephrin type-A receptor 3 (Homo sapiens) (UniProt P29320); test: Residual activity of EPHA3 at 10 uM by microplate scintillation counting
T1 sequence (whole entry): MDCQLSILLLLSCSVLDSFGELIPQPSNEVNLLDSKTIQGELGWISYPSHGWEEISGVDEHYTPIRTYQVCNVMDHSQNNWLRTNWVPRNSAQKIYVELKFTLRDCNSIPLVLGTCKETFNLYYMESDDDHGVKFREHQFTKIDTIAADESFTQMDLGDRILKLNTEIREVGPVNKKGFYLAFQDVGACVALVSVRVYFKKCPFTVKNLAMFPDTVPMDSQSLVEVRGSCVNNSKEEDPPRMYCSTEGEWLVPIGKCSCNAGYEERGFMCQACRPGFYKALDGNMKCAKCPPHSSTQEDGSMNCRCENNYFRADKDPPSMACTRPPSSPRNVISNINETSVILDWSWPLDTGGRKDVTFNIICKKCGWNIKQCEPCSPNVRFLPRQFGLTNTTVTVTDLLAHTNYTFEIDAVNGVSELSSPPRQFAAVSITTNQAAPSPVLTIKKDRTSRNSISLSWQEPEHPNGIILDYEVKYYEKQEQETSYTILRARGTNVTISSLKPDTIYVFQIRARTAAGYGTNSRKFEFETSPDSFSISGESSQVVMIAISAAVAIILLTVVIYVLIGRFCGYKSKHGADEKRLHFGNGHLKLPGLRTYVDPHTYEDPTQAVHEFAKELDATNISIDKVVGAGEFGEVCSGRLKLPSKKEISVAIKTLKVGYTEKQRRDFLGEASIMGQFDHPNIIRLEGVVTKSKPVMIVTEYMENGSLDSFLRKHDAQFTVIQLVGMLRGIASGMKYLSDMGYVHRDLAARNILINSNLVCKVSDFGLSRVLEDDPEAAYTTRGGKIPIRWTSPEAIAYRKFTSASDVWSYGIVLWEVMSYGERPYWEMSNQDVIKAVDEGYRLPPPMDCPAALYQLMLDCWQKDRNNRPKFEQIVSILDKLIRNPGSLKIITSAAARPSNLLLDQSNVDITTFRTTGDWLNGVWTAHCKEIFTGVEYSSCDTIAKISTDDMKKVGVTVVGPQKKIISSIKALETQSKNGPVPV

[2] = target: Serine/threonine-protein kinase PLK3 (Homo sapiens) (UniProt Q9H4B4); test: Residual activity of PLK3 at 1 uM by microplate scintillation counting
Sequence of Serine/threonine-protein kinase PLK3 (Homo sapiens) (Q9H4B4 whole entry, looked up): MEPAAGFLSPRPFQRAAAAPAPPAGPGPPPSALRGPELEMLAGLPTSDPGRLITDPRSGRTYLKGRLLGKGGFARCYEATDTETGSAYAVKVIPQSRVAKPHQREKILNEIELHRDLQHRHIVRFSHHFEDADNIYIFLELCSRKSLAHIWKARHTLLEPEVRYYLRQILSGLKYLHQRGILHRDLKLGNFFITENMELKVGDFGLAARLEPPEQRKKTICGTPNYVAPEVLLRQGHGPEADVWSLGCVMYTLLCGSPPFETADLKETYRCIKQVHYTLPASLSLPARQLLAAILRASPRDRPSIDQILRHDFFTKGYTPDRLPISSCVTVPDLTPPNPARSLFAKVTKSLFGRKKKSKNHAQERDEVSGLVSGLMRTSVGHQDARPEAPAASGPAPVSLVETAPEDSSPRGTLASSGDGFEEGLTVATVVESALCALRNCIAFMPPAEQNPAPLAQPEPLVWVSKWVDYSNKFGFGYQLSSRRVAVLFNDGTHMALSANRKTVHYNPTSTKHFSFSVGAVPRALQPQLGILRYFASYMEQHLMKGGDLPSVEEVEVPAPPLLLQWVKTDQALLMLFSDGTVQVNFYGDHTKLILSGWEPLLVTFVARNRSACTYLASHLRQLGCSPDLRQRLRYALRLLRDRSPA

[3] = target: T2, Serine/threonine-protein kinase DCLK2 (Homo sapiens) (UniProt Q8N568); test: Residual activity of DCAMKL2 at 0.1 uM by microplate scintillation counting
T2 sequence (whole entry): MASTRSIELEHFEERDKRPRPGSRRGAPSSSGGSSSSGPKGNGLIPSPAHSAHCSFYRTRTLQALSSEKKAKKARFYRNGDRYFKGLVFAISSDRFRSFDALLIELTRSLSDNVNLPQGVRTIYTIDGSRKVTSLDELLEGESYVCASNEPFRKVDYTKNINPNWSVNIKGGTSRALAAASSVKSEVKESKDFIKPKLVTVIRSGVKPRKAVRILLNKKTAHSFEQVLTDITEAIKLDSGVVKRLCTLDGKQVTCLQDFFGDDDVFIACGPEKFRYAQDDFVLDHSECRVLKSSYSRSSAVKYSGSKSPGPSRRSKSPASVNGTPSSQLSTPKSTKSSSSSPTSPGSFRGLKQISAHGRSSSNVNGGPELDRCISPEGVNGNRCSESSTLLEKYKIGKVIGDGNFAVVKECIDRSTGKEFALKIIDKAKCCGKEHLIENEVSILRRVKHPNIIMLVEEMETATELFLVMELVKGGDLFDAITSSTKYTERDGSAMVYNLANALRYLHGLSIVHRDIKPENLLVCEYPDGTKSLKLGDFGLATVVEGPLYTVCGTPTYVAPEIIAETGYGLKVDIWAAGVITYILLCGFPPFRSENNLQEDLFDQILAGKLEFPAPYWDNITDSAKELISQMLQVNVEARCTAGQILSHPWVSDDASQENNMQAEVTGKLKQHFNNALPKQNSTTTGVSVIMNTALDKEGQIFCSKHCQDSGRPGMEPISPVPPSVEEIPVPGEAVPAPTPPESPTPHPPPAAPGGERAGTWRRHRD

[4] = target: T3, Muscle, skeletal receptor tyrosine-protein kinase (Homo sapiens) (UniProt O15146); test: Residual activity of MUSK at 10 uM by microplate scintillation counting
T3 sequence (whole entry): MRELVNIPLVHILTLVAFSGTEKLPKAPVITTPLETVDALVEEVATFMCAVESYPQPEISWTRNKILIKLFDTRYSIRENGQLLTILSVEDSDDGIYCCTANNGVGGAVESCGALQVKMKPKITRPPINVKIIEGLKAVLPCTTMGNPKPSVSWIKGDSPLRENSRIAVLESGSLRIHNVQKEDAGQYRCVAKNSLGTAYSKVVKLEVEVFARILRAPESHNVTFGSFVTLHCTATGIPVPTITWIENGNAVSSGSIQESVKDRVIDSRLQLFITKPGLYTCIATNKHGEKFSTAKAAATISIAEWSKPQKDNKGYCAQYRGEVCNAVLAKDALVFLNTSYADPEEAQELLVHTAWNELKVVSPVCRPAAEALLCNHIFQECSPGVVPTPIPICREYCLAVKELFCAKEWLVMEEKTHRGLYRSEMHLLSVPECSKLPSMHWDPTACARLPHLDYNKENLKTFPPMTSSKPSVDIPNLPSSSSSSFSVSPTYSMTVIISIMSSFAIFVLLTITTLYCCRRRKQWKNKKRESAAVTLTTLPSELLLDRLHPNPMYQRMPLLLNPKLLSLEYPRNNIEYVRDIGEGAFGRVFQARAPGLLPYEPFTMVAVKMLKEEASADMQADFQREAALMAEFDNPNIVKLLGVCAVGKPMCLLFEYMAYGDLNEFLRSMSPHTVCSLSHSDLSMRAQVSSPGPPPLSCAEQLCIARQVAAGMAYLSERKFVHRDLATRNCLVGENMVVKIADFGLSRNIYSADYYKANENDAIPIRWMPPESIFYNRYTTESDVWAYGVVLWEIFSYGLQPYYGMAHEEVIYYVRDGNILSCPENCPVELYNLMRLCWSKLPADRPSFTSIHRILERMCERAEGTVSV

[5] = target: Misshapen-like kinase 1 (Homo sapiens) (UniProt Q8N4C8); test: Residual activity of MINK1 at 10 uM by microplate scintillation counting
Sequence of Misshapen-like kinase 1 (Homo sapiens) (Q8N4C8 whole entry, looked up): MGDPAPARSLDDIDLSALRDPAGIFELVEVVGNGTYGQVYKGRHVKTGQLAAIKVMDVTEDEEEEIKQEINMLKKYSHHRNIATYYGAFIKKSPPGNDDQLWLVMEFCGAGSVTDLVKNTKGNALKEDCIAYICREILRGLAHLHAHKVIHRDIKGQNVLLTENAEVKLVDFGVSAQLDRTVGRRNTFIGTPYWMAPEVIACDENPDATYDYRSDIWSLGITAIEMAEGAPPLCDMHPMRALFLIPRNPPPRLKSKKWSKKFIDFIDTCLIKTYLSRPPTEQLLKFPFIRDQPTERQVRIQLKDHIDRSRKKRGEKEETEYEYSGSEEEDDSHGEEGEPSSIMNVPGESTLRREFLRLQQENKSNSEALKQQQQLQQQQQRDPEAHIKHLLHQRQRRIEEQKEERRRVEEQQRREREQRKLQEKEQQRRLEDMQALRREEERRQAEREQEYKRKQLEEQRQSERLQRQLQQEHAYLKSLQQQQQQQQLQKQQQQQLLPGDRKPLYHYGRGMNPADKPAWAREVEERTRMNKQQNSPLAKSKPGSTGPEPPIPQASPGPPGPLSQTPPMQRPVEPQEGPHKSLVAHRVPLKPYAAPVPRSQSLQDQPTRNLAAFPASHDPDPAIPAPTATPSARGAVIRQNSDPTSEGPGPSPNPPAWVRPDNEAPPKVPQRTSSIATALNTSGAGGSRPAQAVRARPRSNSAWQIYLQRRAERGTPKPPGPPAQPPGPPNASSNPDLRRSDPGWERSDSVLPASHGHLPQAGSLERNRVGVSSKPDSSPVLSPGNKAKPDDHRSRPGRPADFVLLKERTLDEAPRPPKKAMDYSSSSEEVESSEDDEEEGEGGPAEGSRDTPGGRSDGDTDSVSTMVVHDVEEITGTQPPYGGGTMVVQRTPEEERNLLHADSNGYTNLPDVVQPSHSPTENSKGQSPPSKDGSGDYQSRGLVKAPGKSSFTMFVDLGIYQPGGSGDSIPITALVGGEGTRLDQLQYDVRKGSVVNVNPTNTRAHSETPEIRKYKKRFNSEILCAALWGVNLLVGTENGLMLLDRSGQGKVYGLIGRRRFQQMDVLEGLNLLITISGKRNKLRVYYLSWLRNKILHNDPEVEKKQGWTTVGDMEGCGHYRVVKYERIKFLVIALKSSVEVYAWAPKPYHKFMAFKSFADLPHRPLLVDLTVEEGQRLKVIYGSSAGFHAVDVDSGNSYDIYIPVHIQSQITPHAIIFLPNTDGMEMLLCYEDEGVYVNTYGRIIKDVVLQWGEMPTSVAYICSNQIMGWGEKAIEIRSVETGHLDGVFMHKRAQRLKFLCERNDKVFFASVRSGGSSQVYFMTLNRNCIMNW

[6] = target: Dual specificity tyrosine-phosphorylation-regulated kinase 1A (Homo sapiens) (UniProt Q13627); test: Residual activity of DYRK1A at 10 uM by microplate scintillation counting
[7] = target: Ephrin type-A receptor 2 (Homo sapiens) (UniProt P29317); test: Residual activity of EPHA2 at 0.1 uM by microplate scintillation counting
Sequence of Ephrin type-A receptor 2 (Homo sapiens) (P29317 whole entry): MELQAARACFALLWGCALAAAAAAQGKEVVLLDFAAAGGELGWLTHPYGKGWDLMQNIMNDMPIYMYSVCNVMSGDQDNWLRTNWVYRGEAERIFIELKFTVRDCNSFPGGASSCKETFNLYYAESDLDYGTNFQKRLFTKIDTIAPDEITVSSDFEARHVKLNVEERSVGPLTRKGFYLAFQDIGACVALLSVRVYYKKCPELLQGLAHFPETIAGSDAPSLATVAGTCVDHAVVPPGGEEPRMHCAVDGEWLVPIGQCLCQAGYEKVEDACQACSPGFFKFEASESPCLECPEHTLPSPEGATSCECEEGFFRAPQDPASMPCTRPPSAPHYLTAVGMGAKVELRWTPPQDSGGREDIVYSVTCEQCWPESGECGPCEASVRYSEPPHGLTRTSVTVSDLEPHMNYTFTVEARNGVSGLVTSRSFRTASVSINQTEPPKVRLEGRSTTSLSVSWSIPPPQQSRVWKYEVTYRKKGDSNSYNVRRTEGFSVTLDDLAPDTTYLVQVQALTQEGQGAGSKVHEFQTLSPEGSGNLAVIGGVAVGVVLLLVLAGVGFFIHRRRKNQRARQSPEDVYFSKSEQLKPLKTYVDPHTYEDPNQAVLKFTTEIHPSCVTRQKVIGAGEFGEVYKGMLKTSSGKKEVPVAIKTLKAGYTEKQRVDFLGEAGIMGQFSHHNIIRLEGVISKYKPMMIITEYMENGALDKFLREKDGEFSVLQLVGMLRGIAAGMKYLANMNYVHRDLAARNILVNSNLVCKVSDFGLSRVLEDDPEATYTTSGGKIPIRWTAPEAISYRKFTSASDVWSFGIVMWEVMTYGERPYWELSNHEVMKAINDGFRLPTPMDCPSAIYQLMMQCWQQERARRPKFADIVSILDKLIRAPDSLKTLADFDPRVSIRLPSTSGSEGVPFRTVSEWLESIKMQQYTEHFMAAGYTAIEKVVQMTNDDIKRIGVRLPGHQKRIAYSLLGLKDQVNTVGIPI

[8] = target: Mitogen-activated protein kinase 9 (Homo sapiens) (UniProt P45984); test: Residual activity of JNK2 at 0.1 uM by microplate scintillation counting
Sequence of Mitogen-activated protein kinase 9 (Homo sapiens) (P45984 whole entry, looked up): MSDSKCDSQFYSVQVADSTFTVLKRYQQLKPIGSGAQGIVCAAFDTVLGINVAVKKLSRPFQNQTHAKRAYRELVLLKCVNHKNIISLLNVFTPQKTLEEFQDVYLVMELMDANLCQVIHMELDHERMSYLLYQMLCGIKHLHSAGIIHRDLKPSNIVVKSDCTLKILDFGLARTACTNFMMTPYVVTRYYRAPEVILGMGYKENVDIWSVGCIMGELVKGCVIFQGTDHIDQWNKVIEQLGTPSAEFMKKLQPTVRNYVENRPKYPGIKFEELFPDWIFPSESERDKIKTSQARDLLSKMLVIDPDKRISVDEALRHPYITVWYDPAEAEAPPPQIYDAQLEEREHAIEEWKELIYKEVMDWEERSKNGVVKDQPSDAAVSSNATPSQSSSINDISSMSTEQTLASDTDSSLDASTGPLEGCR

[9] = target: Mitogen-activated protein kinase 8 (Homo sapiens) (UniProt P45983); test: Residual activity of JNK1 at 10 uM by microplate scintillation counting
Sequence of Mitogen-activated protein kinase 8 (Homo sapiens) (P45983 whole entry): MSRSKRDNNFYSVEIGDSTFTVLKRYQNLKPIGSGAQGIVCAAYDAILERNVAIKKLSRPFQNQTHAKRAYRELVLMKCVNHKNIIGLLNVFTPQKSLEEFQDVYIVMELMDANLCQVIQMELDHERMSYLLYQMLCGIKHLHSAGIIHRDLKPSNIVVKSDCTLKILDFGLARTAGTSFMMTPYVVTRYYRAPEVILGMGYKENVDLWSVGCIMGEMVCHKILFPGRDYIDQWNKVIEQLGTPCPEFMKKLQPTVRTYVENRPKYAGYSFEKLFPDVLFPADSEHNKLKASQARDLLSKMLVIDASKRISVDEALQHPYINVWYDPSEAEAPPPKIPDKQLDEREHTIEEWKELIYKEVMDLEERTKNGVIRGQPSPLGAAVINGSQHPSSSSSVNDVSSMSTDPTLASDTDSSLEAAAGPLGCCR

Compound | residual activity [1] | residual activity [2] | residual activity [3] | residual activity [4] | residual activity [5] | residual activity [6] | residual activity [7] | residual activity [8] | residual activity [9]
COc1cc2c(Oc3ccc(-c4nc5ccccc5s4)cc3)ncnc2cc1OCCCN1CCN(C)CC1 | 236% | 100% | 66% | 44% | 21% | 103% | 99% | 108% | 272%
COc1cc2c(Oc3ccc(-c4nc5ccccc5s4)cc3F)ncnc2cc1OCCCN1CCN(C)CC1 | 143% | 94% | 80% | 41% | 20% | 101% | 94% | 103% | 264%
COc1cc2c(Oc3ccc(-c4nc5ccccc5s4)cc3)ncnc2cc1OCCCN1CCCC1 | 182% | 101% | 87% | 46% | 36% | 89% | 76% | 89% | 305%
